# Test results reported in article PMC4579271, “Inflammatory Signaling by NOD-RIPK2 Is Inhibited by Clinically Relevant Type II Kinase Inhibitors” (Chemistry & Biology, 2015).
# Where two headings read alike, the source gives them in different places.
# Legend:
# [1] = system: RIPK2 ubiquitination in THP-1 cells; assay: TUBE purification of ubiquitin conjugates, L18-MDP-stimulated THP-1 cells; settings: 100 nM pre-treatment, 200 ng/ml L18-MDP
# [2] = system: LPS pathway in THP-1 cells; assay: Flow cytometry of TNF production in THP-1 cells, LPS; assay type: cell-based, human; settings: 10 μM
# Experimental: Figure S7, Related to Figure 7. Inhibition of NOD2 signaling in the human monocytic cell
# line THP-1. Representative FACS blots (A) and quantif ication of TNF production (B) in THP-1
# cells stimulated with L18-MDP or LPS. In indicated conditions cells were preincubated with
# k inase inhibitors for 1 hour before activation of NOD2 and TLR4 receptor for 2.5 hours.
# (1 picture or pasted object on this page, not shown here)
# [3] = target: human RIPK2 recombinant kinase domain (Homo sapiens, UniProt O43353, R171C); assay: Fluorescence-based thermal shift assay; settings: for thermal shift (ΔTm): RIPK2 2 μM, inhibitor 10 μM; for ΔTm at 10 µM: read-out: thermal shift (ΔTm)
# Sequence of human RIPK2 recombinant kinase domain (O43353 8-317 R171C): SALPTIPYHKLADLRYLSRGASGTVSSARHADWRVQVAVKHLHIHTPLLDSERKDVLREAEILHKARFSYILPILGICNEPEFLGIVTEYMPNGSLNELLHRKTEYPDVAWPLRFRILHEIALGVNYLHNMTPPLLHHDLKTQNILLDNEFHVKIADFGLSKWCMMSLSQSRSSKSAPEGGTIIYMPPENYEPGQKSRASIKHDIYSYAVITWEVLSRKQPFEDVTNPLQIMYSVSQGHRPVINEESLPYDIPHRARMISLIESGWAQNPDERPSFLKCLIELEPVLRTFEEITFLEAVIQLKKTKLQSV
# [4] = target: RIPK2 (Homo sapiens, UniProt O43353); assay: ADPGlo in vitro kinase assay; assay type: biochemical; settings: Figure S5A
# Sequence of RIPK2 (Homo sapiens, UniProt O43353) (O43353 18-294 limits assumed): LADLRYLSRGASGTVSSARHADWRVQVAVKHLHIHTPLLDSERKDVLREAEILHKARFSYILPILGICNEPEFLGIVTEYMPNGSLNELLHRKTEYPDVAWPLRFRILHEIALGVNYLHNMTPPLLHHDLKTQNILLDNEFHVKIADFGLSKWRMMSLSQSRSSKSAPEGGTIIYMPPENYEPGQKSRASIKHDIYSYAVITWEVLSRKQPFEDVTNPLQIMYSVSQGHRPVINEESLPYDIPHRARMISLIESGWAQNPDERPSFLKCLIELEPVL
# Experimental: (§1) For ADPGlo (Promega) assays, 1 ng of Abl or 10 ng of RIPK2 was diluted in reaction buffer (40 mM Tris-HCl [pH 7.5], 20 mM MgCl2, 0.5 mM DTT, and 0.01% BSA) supplemented with 50 μM ATP and a 10-point dose range of inhibitors. Detailed information is provided in the Supplemental Experimental Procedures.
# (§2) 40C centrifuge at 14,000 rpm for 15 min to collect lysates. Protein concentrations were […]
# (§3) Equal amounts of proteins were separated using 8-10% SDS-PAGE, followed by overnight incubations with antibodies according to the manuf acturer’s recommendations.
# (§4) AD P G l o in vitro kinase assays
# (§5) For ADPGlo (Promega) assays, 1 ng Abl or 10 ng of RIPK2 was diluted in reaction buff er (40 mM Tris-HCl pH 7.5, 20 mM MgCl2, 0.5 m M DTT, 0.01% BSA) supplemented with 50 µM ATP and 10-point dose range of inhibitors. Reactions were performed at room temperature for 1 hour. Reactions were performed in 5 µL total volume (5% final concentration of DMSO) and stopped by addition of 5 µL of ADPGlo reagent for 40 min at room temperature. Luminescent signal was generated by addition of 10 µL of kinase detection reagent for 30 minutes at room temperature and determined using Victor3V platereader (Perkin Elmer). Specific signal was calculated by subtracting values in the wells without protein and inhibitor from the values in the test wells. Inhibition, % = ((specif ic signal (DMSO control) - specif ic signal (inhibitor))/ (specif ic signal (DMSO control))) x 100%. Non-linear regression to determine IC50 values was perf ormed using Prism software (GraphPad). qPCR analysis in RAW 264.7 cells
# (§6) RAW cells were seeded at 2X105 cells/well in 12 well plates. Af ter 24 hours, cells were treated with inhibitors and stimulated with 10 µg/mL MDP f or 24 hours. Total RNAs were isolated using […]
# [5] = system: NF-κB activation in HEKBlue cells expressing NOD2; assay: HEKBlue NF-κB-SEAP reporter activation assay, L18-MDP stimulation; settings: for inhibition of NOD2 (MDP) response in HEKBlue cells: Figure S5B; for EC50: Homo sapiens, HEK-Blue, 8 h, read-out: NFκB activity EC50
# [6] = target: Abl (Homo sapiens, UniProt P00519); assay: ADPGlo in vitro kinase assay; assay type: biochemical; settings: Figure S5A
# Sequence of Abl (P00519 whole entry, species assumed): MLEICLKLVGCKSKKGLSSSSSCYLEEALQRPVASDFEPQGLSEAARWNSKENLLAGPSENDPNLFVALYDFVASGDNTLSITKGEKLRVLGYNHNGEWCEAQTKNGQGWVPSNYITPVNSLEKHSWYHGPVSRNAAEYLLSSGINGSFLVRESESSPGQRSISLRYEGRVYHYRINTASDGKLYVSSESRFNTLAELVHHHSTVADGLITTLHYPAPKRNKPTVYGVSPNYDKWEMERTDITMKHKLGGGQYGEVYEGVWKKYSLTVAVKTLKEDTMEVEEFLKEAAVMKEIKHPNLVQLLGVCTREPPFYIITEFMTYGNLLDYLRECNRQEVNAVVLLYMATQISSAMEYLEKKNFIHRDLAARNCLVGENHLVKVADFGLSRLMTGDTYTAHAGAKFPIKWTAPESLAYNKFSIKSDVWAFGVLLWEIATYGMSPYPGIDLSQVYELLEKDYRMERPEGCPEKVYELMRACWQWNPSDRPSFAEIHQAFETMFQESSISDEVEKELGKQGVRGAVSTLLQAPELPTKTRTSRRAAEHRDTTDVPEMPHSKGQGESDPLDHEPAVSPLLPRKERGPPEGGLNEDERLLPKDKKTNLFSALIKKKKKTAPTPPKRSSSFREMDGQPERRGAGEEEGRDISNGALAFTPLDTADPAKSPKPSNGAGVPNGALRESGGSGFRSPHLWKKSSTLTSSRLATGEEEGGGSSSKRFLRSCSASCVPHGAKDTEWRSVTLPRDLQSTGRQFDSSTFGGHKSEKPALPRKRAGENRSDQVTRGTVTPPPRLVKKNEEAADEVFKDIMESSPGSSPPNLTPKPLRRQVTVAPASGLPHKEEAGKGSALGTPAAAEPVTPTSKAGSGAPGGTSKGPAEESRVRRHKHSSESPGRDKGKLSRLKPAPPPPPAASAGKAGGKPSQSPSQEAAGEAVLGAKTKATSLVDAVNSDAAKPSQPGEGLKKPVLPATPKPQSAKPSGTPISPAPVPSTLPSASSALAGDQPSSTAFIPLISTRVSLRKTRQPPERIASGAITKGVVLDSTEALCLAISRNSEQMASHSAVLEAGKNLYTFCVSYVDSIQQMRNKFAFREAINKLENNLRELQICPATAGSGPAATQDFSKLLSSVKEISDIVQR
# Experimental: as §1, §2, §3, §4, §5, §6
# [7] = system: phospho-Ser176-RIPK2 (p-RIPK2) in NOD2-expressing HEK293 cells; assay: Western blot of phospho-Ser176-RIPK2 in HEKBlue cells after L18-MDP
# [8] = system: NOD2-dependent TNF production in primary human monocytes; assay: Flow cytometry of intracellular TNF in primary human monocytes, L18-MDP; assay type: cell-based; settings: 200 ng/ml L18-MDP
# Experimental: Experimental conditions are measured in 4–5 healthy donors. […] Gray background indicates range without inhibitors. See also Figure S7.
# [9] = system: RIPK2; settings: ref Vogt et al., 2011; cited from earlier work
smiles,measurement,setting,value
COc1cc2ncnc(Nc3ccc(F)c(Cl)c3)c2cc1OCCCN1CCOCC1 [gefitinib],L18-MDP-induced RIPK2 ubiquitination,[1],less robust inhibitory effects
same,LPS pathway TNF production,[2],also inhibited the LPS pathway
COC(=O)[C@@]1(O)C[C@H]2O[C@]1(C)n1c3ccccc3c3c4c(c5c6ccccc6n2c5c31)C(=O)NC4 [K252a],thermal shift (ΔTm),[3],10.0 °C
Cc1cn(-c2cc(NC(=O)c3ccc(C)c(Nc4nccc(-c5cccnc5)n4)c3)cc(C(F)(F)F)c2)cn1 [nilotinib],inhibition of RIPK2 in vitro,[4],did not inhibit
same,inhibition of NOD2 (MDP) response in HEKBlue cells,[5],did not inhibit
c1cc(-c2cnn3cc(-c4ccc(OCCN5CCCCC5)cc4)cnc23)ccn1 [Dorsomorphin],ΔTm at 10 µM,[3],9.6 °C
CN1CCN(Cc2ccc(NC(=O)c3ccc(C(C)(C)C)c(C#Cc4cnc5cccnn45)c3)cc2C(F)(F)F)CC1 [CS6],inhibition of RIPK2 in vitro,[4],loss of inhibition
same,inhibition of Abl kinase activity,[6],loss of inhibition
same,inhibition of NOD2 (MDP) response in HEKBlue cells,[5],did not inhibit
CNC(=O)c1cc(Oc2ccc(NC(=O)Nc3ccc(Cl)c(C(F)(F)F)c3)c(F)c2)ccn1 [regorafenib],L18-MDP-induced RIPK2 ubiquitination,[1],less robust inhibitory effects
same,inhibition of L18-MDP-induced p-RIPK2,"[7]; 1 μg/ml L18-MDP, 30 min",inhibited by low nanomolar concentrations
same,concentration completely abrogating NOD2-dependent TNF production,[8],100 nM
same,EC50,[5],3.8 nM
Cc1cccc(-c2nn(C(=S)Nc3ccccc3)cc2-c2ccnc3ccccc23)n1 [TGFβ inhibitor IV (A-83-01)],thermal shift (ΔTm),[3],8.4 °C
Cc1nc(Nc2ncc(C(=O)Nc3c(C)cccc3Cl)s2)cc(N2CCN(CCO)CC2)n1 [Dasatinib],ΔTm at 10 µM,[3],9.5 °C
CN1CCC(Nc2ncc3ncnc(Nc4ccc(F)c(Cl)c4)c3n2)CC1 [BIBX1382],ΔTm at 10 µM,[3],8.7 °C
CNC(=O)c1cc(Oc2ccc(NC(=O)Nc3ccc(Cl)c(C(F)(F)F)c3)cc2)ccn1 [sorafenib],inhibition of L18-MDP-induced p-RIPK2,[7],inhibited by low nanomolar concentrations
same,EC50,[5],16.9 nM
CN[C@@H]1C[C@H]2O[C@@](C)([C@@H]1OC)n1c3ccccc3c3c4c(c5c6ccccc6n2c5c31)C(=O)NC4 [Staurosporine],ΔTm at 10 µM,[3],9.1 °C
c1ccc2c(-c3cnn4cc(-c5ccc(N6CCNCC6)cc5)cnc34)ccnc2c1 [LDN-193189],thermal shift (ΔTm),[3],12.1 °C
same,IC50,[9],25 nM
